Where two headings read alike, the source gives them in different places.
Assays:
Assay in all cases: HotSpot kinase profiling
Assay type in all cases: biochemical
PKN2/PRK2 = target: T1, PKN2/PRK2 (Homo sapiens, UniProt Q16513)
T1 construct: purchased Reaction Biology Corp
How it was run: (§1)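 Activity is measured by radiolabel transfer captured on P81 filters after a 2 h room-temperature reaction of kinase, substrate and cofactors. Values are percent inhibition against DMSO.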

ERBB4/HER4 = target: T2, ERBB4/HER4 (Homo sapiens, UniProt Q15303)
T2 construct: purchased Reaction Biology Corp
How it was run: as §1

AKT2 = target: T3, AKT2 (Homo sapiens, UniProt P31751)
T3 construct: purchased Reaction Biology Corp
How it was run: as §1

GRK5 = target: T4, GRK5 (Homo sapiens, UniProt P34947)
T4 construct: purchased Reaction Biology Corp
How it was run: as §1

SSTK/TSSK6 = target: T5, SSTK/TSSK6 (Homo sapiens, UniProt Q9BXA6)
T5 construct: purchased Reaction Biology Corp
How it was run: as §1

FGFR2 = target: T6, FGFR2 (Homo sapiens, UniProt P21802)
T6 construct: purchased Reaction Biology Corp
How it was run: as §1

PKAcb = target: T7, PKAcb (Homo sapiens, UniProt P22694)
T7 construct: purchased Reaction Biology Corp
How it was run: as §1

c-MER = target: T8, c-MER (Homo sapiens, UniProt Q12866)
T8 construct: purchased Reaction Biology Corp
T8 sequence (Q12866 21-999): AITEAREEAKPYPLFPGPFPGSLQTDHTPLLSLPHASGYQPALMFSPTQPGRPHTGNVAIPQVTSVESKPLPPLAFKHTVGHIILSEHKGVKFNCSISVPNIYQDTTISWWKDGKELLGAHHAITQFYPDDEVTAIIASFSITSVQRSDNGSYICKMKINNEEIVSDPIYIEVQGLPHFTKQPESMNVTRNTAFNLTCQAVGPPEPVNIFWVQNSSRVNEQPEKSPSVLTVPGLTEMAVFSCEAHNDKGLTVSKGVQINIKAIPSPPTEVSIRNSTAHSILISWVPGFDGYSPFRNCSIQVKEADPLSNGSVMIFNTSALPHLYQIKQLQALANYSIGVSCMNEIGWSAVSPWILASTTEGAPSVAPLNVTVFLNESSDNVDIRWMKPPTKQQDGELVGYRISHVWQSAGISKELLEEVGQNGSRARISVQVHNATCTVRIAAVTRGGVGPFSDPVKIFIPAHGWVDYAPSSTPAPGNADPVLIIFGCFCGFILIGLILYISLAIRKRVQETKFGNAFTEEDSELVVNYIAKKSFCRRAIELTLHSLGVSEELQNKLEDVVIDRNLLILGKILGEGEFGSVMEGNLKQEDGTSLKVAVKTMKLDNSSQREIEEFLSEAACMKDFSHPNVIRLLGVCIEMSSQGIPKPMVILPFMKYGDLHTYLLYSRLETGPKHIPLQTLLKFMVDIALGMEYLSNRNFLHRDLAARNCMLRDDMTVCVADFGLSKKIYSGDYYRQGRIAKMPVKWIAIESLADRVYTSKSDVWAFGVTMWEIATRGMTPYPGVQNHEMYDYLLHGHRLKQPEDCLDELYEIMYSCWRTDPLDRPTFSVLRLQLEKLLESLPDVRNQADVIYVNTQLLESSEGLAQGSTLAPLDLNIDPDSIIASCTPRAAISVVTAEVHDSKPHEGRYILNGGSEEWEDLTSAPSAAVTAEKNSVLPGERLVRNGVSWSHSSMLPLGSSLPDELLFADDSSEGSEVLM
How it was run: as §1

MEK3 = target: T9, MEK3 (Homo sapiens, UniProt P46734)
T9 construct: purchased Reaction Biology Corp
T9 sequence (P46734 1-347): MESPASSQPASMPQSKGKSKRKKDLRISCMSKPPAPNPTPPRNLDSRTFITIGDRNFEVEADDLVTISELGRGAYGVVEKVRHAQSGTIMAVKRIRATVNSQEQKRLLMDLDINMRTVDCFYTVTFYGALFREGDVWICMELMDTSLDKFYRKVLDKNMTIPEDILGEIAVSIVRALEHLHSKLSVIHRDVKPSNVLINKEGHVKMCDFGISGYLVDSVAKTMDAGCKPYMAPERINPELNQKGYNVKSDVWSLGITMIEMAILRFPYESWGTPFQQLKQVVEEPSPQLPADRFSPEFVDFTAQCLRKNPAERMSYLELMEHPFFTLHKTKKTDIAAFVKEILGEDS
How it was run: as §1

TRKA = target: T10, TRKA (Homo sapiens, UniProt P04629)
T10 construct: purchased Reaction Biology Corp
How it was run: as §1

CDK9/cyclin K = target: T11, CDK9/cyclin K (Homo sapiens, UniProt P50750)
T11 construct: purchased Reaction Biology Corp
How it was run: as §1

[1] = read-out: % Enzyme Activity (relative to DMSO controls) Run 1
[2] = read-out: % Enzyme Activity (relative to DMSO controls) Run 2

T10 sequence (P04629 33-796): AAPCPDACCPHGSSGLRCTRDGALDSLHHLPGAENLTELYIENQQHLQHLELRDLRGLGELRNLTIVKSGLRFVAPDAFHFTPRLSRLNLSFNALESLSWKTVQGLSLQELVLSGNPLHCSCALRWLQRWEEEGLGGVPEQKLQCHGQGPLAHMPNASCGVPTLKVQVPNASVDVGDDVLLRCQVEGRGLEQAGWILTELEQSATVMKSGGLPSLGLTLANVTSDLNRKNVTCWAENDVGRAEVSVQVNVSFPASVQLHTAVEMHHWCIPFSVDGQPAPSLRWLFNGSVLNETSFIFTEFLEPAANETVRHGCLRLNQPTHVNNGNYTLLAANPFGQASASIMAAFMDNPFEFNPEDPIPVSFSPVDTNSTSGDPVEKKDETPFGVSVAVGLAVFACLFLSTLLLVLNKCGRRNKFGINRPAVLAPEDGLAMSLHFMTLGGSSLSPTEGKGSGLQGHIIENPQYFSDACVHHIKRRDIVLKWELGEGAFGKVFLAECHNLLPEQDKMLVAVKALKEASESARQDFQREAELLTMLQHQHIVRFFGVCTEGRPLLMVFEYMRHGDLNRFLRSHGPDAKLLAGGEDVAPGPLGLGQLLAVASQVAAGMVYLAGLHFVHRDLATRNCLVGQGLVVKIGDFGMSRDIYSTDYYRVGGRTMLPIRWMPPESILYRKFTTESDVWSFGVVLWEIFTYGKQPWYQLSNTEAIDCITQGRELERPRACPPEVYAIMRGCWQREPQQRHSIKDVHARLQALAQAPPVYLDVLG
T5 sequence (Q9BXA6 whole entry): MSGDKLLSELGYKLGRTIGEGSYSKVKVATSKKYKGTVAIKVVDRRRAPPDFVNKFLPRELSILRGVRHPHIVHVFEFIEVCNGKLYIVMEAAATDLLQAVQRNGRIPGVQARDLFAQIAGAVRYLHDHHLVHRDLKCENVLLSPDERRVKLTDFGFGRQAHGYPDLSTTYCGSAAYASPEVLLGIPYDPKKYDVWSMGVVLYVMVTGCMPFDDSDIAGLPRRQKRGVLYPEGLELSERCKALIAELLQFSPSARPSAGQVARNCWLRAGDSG
T4 sequence (P34947 whole entry): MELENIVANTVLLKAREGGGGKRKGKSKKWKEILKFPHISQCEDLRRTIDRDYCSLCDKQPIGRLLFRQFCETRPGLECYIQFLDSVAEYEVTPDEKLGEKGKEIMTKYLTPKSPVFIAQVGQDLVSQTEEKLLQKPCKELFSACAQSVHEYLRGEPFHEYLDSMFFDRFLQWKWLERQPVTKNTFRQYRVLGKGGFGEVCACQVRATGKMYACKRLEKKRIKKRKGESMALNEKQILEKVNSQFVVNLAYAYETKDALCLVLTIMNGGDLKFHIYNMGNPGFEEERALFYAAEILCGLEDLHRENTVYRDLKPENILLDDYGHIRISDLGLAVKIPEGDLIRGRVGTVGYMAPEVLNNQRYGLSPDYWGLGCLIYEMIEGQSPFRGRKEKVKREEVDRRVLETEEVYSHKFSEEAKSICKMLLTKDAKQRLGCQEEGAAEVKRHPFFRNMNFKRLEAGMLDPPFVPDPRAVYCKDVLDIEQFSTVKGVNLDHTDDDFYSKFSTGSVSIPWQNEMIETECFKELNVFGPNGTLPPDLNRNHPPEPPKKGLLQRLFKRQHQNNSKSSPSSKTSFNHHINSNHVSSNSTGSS
T6 sequence (P21802 22-821): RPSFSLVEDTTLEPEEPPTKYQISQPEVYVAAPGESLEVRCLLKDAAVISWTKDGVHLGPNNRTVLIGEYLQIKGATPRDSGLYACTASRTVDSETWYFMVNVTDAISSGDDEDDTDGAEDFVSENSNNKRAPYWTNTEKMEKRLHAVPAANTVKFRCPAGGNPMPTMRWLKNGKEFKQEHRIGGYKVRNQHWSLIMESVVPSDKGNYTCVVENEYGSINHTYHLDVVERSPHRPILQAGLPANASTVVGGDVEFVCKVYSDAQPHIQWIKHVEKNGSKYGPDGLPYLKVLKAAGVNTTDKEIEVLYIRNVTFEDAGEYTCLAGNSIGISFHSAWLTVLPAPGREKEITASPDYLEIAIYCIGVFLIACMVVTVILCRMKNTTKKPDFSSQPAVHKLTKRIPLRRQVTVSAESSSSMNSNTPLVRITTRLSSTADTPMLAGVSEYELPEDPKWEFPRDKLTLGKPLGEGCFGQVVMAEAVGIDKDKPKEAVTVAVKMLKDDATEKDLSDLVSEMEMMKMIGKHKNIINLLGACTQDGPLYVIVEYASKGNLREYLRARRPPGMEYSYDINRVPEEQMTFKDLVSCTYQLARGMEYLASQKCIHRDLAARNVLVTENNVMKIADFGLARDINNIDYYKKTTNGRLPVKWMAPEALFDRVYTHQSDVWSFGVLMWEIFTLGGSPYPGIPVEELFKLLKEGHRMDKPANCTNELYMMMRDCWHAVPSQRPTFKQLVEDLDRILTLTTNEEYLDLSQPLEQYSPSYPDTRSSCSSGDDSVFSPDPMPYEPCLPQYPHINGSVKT
T11 sequence (P50750 whole entry): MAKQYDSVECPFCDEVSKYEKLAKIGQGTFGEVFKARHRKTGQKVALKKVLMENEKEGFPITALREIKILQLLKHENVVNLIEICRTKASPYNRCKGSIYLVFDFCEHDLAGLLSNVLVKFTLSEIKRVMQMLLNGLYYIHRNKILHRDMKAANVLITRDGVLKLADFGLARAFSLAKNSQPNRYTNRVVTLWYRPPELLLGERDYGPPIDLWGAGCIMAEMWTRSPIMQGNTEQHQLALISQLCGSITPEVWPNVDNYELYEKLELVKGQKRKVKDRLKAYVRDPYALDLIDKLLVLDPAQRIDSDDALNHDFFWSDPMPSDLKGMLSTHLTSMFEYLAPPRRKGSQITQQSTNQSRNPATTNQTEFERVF
T11 sequence (O75909 whole entry partner): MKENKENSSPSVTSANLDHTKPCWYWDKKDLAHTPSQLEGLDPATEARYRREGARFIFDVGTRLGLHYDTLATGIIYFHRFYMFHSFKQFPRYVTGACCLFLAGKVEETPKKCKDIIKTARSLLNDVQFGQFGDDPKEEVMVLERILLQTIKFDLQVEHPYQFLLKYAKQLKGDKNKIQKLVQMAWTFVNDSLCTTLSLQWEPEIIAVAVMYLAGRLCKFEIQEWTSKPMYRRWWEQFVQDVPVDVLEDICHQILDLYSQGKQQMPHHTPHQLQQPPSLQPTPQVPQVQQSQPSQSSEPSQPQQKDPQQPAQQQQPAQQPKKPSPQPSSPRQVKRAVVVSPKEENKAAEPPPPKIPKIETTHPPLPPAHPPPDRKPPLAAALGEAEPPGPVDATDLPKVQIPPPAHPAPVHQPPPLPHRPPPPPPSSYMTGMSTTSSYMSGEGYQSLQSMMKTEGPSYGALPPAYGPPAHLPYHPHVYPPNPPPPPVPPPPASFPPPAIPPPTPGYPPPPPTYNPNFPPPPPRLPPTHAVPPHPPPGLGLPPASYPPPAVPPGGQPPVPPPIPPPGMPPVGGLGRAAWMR
T1 sequence (Q16513 whole entry): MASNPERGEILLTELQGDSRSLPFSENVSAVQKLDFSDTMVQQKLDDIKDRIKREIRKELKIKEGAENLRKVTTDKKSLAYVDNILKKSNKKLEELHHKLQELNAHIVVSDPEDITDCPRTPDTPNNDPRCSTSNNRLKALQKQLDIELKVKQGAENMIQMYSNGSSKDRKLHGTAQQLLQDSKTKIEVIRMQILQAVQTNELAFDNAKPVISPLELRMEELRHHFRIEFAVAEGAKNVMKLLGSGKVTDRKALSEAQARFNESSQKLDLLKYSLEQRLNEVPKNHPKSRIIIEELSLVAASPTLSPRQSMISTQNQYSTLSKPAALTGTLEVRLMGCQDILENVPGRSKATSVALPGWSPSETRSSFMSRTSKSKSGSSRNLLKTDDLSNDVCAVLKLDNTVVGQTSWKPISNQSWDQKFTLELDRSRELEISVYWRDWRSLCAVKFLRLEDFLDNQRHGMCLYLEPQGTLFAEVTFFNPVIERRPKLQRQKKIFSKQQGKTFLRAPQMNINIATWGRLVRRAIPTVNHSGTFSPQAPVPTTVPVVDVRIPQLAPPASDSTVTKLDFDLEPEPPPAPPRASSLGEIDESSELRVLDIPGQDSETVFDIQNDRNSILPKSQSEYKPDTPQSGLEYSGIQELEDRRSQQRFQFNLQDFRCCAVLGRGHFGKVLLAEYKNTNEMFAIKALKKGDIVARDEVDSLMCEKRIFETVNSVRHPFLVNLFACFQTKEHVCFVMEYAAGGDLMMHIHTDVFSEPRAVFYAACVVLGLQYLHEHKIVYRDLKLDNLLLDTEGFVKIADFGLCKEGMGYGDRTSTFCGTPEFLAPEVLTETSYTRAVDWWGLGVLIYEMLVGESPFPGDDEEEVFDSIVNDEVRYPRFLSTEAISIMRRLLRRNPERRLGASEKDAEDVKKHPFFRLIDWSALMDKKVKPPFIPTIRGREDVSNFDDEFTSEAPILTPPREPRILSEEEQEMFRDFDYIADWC
T3 sequence (P31751 whole entry): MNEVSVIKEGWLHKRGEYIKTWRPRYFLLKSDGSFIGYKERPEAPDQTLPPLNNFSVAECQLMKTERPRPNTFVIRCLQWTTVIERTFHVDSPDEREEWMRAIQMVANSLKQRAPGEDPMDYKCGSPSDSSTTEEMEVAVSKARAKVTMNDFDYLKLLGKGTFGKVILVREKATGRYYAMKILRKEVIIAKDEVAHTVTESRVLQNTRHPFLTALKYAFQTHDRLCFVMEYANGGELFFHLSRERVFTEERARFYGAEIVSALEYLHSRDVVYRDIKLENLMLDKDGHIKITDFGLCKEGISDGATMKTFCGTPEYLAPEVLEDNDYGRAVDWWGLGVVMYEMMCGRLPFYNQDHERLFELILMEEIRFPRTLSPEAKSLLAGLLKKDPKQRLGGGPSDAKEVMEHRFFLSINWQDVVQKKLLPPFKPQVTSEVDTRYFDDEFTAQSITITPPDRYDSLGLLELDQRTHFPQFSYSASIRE

SMILES: C=CC(=O)Nc1cccc(Nc2nc(Nc3ccc(OCCOC)c(F)c3)ncc2F)c1 [Compound 2]
- inhibition at 3 µM (PKN2/PRK2): 7.64%
- remaining activity at 3 µM (PKN2/PRK2; [1]): 93.3%
- remaining activity at 3 µM (PKN2/PRK2; [2]): 91.4%
- inhibition at 3 µM (ERBB4/HER4): 91.3%
- remaining activity at 3 µM (ERBB4/HER4; [1]): 9.15%
- remaining activity at 3 µM (ERBB4/HER4; [2]): 8.32%
- inhibition at 3 µM (AKT2): 4.23%
- remaining activity at 3 µM (AKT2; [1]): 93.7%
- remaining activity at 3 µM (AKT2; [2]): 97.9%
- inhibition at 3 µM (GRK5): -2.59%
- remaining activity at 3 µM (GRK5; [1]): 103%
- remaining activity at 3 µM (GRK5; [2]): 102%
- inhibition at 3 µM (SSTK/TSSK6): -3.6%
- remaining activity at 3 µM (SSTK/TSSK6; [1]): 107%
- remaining activity at 3 µM (SSTK/TSSK6; [2]): 99.8%
- inhibition at 3 µM (FGFR2): 63.4%
- remaining activity at 3 µM (FGFR2; [1]): 37.3%
- remaining activity at 3 µM (FGFR2; [2]): 36%
- inhibition at 3 µM (PKAcb): 49.6%
- remaining activity at 3 µM (PKAcb; [1]): 49.7%
- remaining activity at 3 µM (PKAcb; [2]): 51.1%
- inhibition at 3 µM (c-MER): 33.6%
- remaining activity at 3 µM (c-MER; [1]): 66.5%
- remaining activity at 3 µM (c-MER; [2]): 66.4%
- inhibition at 3 µM (MEK3): -15.3%
- remaining activity at 3 µM (MEK3; [1]): 117%
- remaining activity at 3 µM (MEK3; [2]): 113%
- inhibition at 3 µM (TRKA): -17.7%
- remaining activity at 3 µM (TRKA; [1]): 117%
- remaining activity at 3 µM (TRKA; [2]): 118%
- inhibition at 3 µM (CDK9/cyclin K): 18.1%
- remaining activity at 3 µM (CDK9/cyclin K; [1]): 81.7%
- remaining activity at 3 µM (CDK9/cyclin K; [2]): 82.2%

From US9492471B2, “Methods of treating a disease or disorder associated with Bruton'S Tyrosine Kinase” (Celgene Avilomics Research, Inc., priority 2013, dated 2016)
